The values below come from patent publication US11331306B2, “Pharmaceutical compositions comprising 4-[1-(2,3-dimethylphenyl)ethyl]-3H-imidazole derivatives for treating retinal diseases” (Allergan, Inc., priority 2011, dated 2022).

Like-named read-outs stand apart in the source and are kept apart here.

One data set addresses T1, alpha 2A receptor (Homo sapiens, UniProt P08913).
T1 sequence (P08913 1-465): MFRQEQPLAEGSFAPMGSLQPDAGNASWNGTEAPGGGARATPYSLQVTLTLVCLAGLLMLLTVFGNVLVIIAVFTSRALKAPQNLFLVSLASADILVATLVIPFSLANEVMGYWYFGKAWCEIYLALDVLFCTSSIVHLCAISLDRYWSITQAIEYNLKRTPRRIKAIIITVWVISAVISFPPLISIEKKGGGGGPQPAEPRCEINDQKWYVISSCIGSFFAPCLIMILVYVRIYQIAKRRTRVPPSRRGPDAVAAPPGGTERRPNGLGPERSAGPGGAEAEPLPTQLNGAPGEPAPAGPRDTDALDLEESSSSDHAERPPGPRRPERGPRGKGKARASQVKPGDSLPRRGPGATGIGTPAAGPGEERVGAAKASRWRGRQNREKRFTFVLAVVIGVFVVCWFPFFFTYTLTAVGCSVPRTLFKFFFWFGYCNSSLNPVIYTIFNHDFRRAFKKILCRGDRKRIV
In words: biochemical. The following applies: for Relative Efficacy: efficacy relative to the full agonist brimonidine (1.0). How it is done:
In the GTPase assay, receptor activation results in dissociation of GDP and binding of the nonhydrolyzable [^35S]GTPyS to receptor-coupled G-proteins. The extent of binding is a measure of receptor activation. Membranes were prepared from HEK cells transiently expressing the alpha 2A receptor and the three subunits of the Gi G-protein. Membranes were thawed and resuspended using a Polytron disrupter in 4° C. membrane buffer and quantified via Bradford assay. The quantified protein was then added to reaction buffer [50 mM Tris-HCl, 100 mM NaCl, 5 mM MgCl2, 1 mM DTT, 1 mM EDTA, 3 μM propranolol, and 0.1 mM AMP; pH 7.4 and 4° C. to achieve a 100 μg/ml concentration, allowed to incubate for 15 minutes, and then incubated for an additional 10 minutes in the presence of 6 μM GDP. The above mixture was then aliquoted, 50 μL/well, in a 96 well plate, combined with an equal volume of test compound dissolved in assay buffer [50 mM Tris-HCl, 100 mM NaCl, 5 mM MgCl2, 1 mM EDTA, and 1 mM DTT, pH 7.4 and 4° C.], and allowed to incubate for 5 minutes. Immediately following the above incubation, the mixture was combined with 50 μL of 1.5 nM [^35S]GTPyS in assay buffer and shaken covered for 60 minutes at 25° C. Assays were terminated by vacuum filtration over GF/B filters blocked with 0.5% BSA. Filters were then washed with 4° C. wash buffer [50 mM Tris-HCl, 100 mM NaCl, and 5 mM MgCl2, pH 7.5. The incorporated [^35S]GTPyS was determined using a Microbeta 1450B liquid scintillation counter after the plates had dried overnight.

A further data set addresses T2, α2A-adrenergic receptor (Homo sapiens, UniProt P08913).
T2 sequence (P08913 1-465): T1 sequence (P08913 1-465)
The following applies: for down regulation of alpha 2A receptor (receptor density): binding studies, result in words; for Percent of B max Decrease: 24 hours, HEK 293T cells stably transfected with α2A-adrenergic receptor. How it is done:
Human embryonic kidney (HEK) 293T cells stably transfected with the α2A-adrenergic receptor were grown to 50-60% confluency on T-175 culture flasks in DMEM (Gibco, cat. #11995), 10% FBS (Gibco, cat. #16140), 0.25 μg/ml puromycin (Sigma, cat. # P-8833), and 1% antibiotic-antimycotic (Gibco, cat. #15240) maintained at 37° C. and 5% CO2. […] The cells were then washed with room temperature Dulbecco's phosphate buffered saline (DPBS; Gibco, cat. #14190).
Cells were harvested with 4° C. Tris-EDTA buffer [50 mM Tris-HCl, 5 mM EDTA; pH 7.4] and centrifuged at 5,000×g for 5 minutes at 4° C. Membrane preparation was conducted by resuspending the cell pellets in 4° C. Tris-EDTA buffer and lysed with a Polytron disrupter two times (setting 7, 5 seconds each). The lysed suspension was then centrifuged at […] for 32 minutes at 4° C. After decanting the supernatant, the pelleted material was further lysed in 4° C. Tris buffer [50 mM Tris-HCl; pH 8.0] using the Polytron disrupter (setting 4, 5 seconds). Membranes were then aliquoted, pelleted at […] for 32 minutes at 4° C., and stored at −80° C. until use.
Membranes were thawed and resuspended using a Polytron disrupter in 4° C. HBSS-HEPES buffer [1 part 1M HEPES: 5 parts 10× Hank's Balanced Salt Solution: 43.8 parts H2O; pH 7.4 with KOH) and quantified via Bradford assay. The quantified protein was further diluted with HBSS-HEPES buffer to achieve a 100 μg/ml concentration. Membrane suspension was plated in a 96-well plate at 200 IμLs/well±10 μM phentolamine HCl (Sigma, cat. # P-7547) and [Methyl-^3H] Rauwolscine (15 nM to 0.05 nM; PerkinElmer, cat. # NET722250UC). The assay plate was slowly shaken and incubated at 25° C. for ninety minutes. Immediately following the above incubation, the assays were terminated by vacuum filtration over GF/B filters. Filters were then washed with 4° C. HBSS-HEPES buffer. The incorporated [Methyl-^3H] Rauwolscine was determined using a Microbeta 1450B liquid scintillation counter after the plates had dried overnight.

Data set [1] has as its system blue light model of retinal degeneration in rats. In words: blue light model of retinal degeneration, retinal thickness by OCT. Format: in vivo, Sprague Dawley rats. The following applies: 1 mg/kg/day subcutaneous infusion from two days before 4 hours blue light, OCT at 7 days post exposure, versus saline. How it is done:
(§1) Drugs were administered continuously with subcutaneous infusion pumps at a dose of 1 mg/kg/day starting two days before blue light exposure. These concentrations result in drug levels in the retina of 2.3 ng/g OH-dexmedetomidine which are sufficient for pharmacological activity. Twenty 4-month old male Sprague Dawley rats (body weight 470-550 g) were used in this study. The animals were exposed to room light on a 12 hour light/12 hour dark cycle before the experiment. All animals were dark adapted overnight (16-20 hours) before blue light. Under the intensity of 6100-6500 lux, rats were exposed to blue light for 4 hours. After the blue light, rats were placed in the dark for another 3 days before returning to normal 12 hour light/12 hour dark. Ocular Coherence Tomography (OCT) measurement was performed at 7 days post blue light exposure. […] Histology studies have shown that the reduction in retinal thickness is attributable to loss of photoreceptors.

The nature of data set [2]: drug level in the retina under continuous subcutaneous infusion. The class given is in vivo, Sprague Dawley rats. The following applies: rats, continuous subcutaneous infusion pumps, 1 mg/kg/day. How it is done: as §1

With `Cc1c(CO)cccc1C(C)c1c[nH]cn1` (racemic) [OH-medetomidine, [3-(1-(1H-imidazol-4-yl)ethyl)-2-methylphenyl] methanol, reference compound], at alpha 2A receptor, the response was half-maximal at 20 nM (EC50) and the “Relative Efficacy” value is 0.26.

Molecule `Cc1c(CO)cccc1[C@H](C)c1c[nH]cn1` [OH-dexmedetomidine, (S) [3-(1-(1H-imidazol-4-yl)ethyl)-2-methylphenyl] methanol] yielded a concentration giving a half-maximal response (EC50) at alpha 2A receptor of 45 nM. Besides, the “Relative Efficacy” value on alpha 2A receptor is 0.65. In addition, at α2A-adrenergic receptor, the “down regulation of alpha 2A receptor (receptor density)” value is reported as “very little down regulation of alpha 2A receptor”. In addition, the entries for the “Percent of B max Decrease” value on α2A-adrenergic receptor (compound concentration 1 μM) and on α2A-adrenergic receptor (compound concentration 10 μM) were −25% and −14%, respectively. In addition, the “damage caused by blue light (reduction of retinal thickness measured by OCT)” value is listed as “significantly reduced the damage caused by blue light” in data set [1] and “reduced the damage caused by blue light” in data set [1] (listed as (S) [3-(1-(1H-imidazol-4-yl)ethyl)-2-methylphenyl] methanol). Moreover, the “drug levels in the retina” value in data set [2] is 2.3 ng/g.

Consider `Brc1c(N=C2NCCN2)ccc2nccnc12` [brimonidine, (5-bromo-quinoxalin-6-yl)-imidazolidin-2-ylidene-amine, reference compound], for which, on α2A-adrenergic receptor, the “down regulation of alpha 2A receptor (receptor density)” value is recorded as “strong reduction in the alpha 2A receptor density”. The “Percent of B max Decrease” value on α2A-adrenergic receptor (compound concentration 1 μM) is −45%; at α2A-adrenergic receptor (compound concentration 10 μM) it was −60%.

In general, EC50 refers to the concentration that produces a half-maximal response.
